According to patent US11753411B2, “Substituted pyrazolo[1,5-a]pyrimidines as TYK2 pseudokinase ligands” (Ventyx Biosciences, Inc., priority 2019, dated 2023):

Test system: IFN-a/Jak1 Tyk2
Assay: Co-stimulation assay in lysed whole blood: IFNa (JAK1/TYK2) stimulated STAT1 phosphorylation
Type: cell-based
Details: Homo sapiens, 20 min, 100 ng/mL IFNa (with 10 ng/mL GM-CSF), pSTAT by flow cytometry
In short: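 Lysed human whole blood (RBC-lysed, resuspended in cRPMI) pre-incubated with compound 1 h at 37 °C, then stimulated 20 min with IFNa 100 ng/mL plus GM-CSF 10 ng/mL (final). Fixed, permeabilised, stained for pSTAT1 (PE) and pSTAT5 (AF488); flow cytometry read-out, ≥5,000–10,000 cells acquired.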

IC50 [µM]	SMILES
≥ 10	CNc1cc(Nc2cccc3c2OCCO3)nc2c(NC(=O)NC3CC(C)(O)C3)cnn12 (centres unmarked) [Compound 48, 1-(5-((2,3-dihydrobenzo[b][1,4]dioxin-5-yl)amino)-7-(methylamino)pyrazolo[1,5-a]pyrimidin-3-yl)-3-(3-hydroxy-3-methylcyclobutyl)urea]
< 1	CNc1cc(Nc2cc(F)cc3c2OCCO3)nc2c(NC(=O)N[C@H]3C[C@@H]3F)cnn12 [Compound 41, 1-(5-((7-fluoro-2,3-dihydrobenzo[b][1,4]dioxin-5-yl)amino)-7-(methylamino)pyrazolo[1,5-a]pyrimidin-3-yl)-3-((1S,2S)-2-fluorocyclopropyl)urea]
< 1	CNc1cc(Nc2cccc3c2OCCO3)nc2c(NC(=O)NC3CC(C#N)C3)cnn12 (centres unmarked) [Compound 27, 1-(3-cyanocyclobutyl)-3-(5-((2,3-dihydrobenzo[b][1,4]dioxin-5-yl)amino)-7-(methylamino)pyrazolo[1,5-a]pyrimidin-3-yl)urea]
≥ 10	CNc1cc(Nc2cccc3c2OCCO3)nc2c(NC(=O)NC3CC3O)cnn12 (centres unmarked) [Compound 32, 1-(5-((2,3-dihydrobenzo[b][1,4]dioxin-5-yl)amino)-7-(methylamino)pyrazolo[1,5-a]pyrimidin-3-yl)-3-(2-hydroxycyclopropyl)urea]
< 1	CNc1cc(Nc2cccc3c2OCCO3)nc2c(NC(=O)NC(C)C#N)cnn12 (centres unmarked) [Compound 119, 1-(1-cyanoethyl)-3-(5-((2,3-dihydrobenzo[b][1,4]dioxin-5-yl)amino)-7-(methylamino)pyrazolo[1,5-a]pyrimidin-3-yl)urea]
< 1	CNc1cc(Nc2cccc3c2OCCO3)nc2c(NC(=O)NC3CCCC3)cnn12 [Compound 108, 1-cyclopentyl-3-(5-((2,3-dihydrobenzo[b][1,4]dioxin-5-yl)amino)-7-(methylamino)pyrazolo[1,5-a]pyrimidin-3-yl)urea]
< 1	CNc1cc(Nc2cccc3c2OCCO3)nc2c(NC(=O)NC3CC(=O)C3)cnn12 [Compound 36, 1-(5-((2,3-dihydrobenzo[b][1,4]dioxin-5-yl)amino)-7-(methylamino)pyrazolo[1,5-a]pyrimidin-3-yl)-3-(3-oxocyclobutyl)urea]
1 to 10	CNc1cc(Nc2cccc3c2OCCO3)nc2c(NC(=O)NC3CS(=O)(=O)C3)cnn12 [Compound 125, 1-(5-((2,3-dihydrobenzo[b][1,4]dioxin-5-yl)amino)-7-(methylamino)pyrazolo[1,5-a]pyrimidin-3-yl)-3-(1,1-dioxidothietan-3-yl)urea]
< 1	[2H]C([2H])([2H])Nc1cc(Nc2cc(F)cc3c2OCCO3)nc2c(NC(=O)N[C@@H]3C[C@@H]3F)cnn12 [Compound 49, 1-(5-((7-fluoro-2,3-dihydrobenzo[b][1,4]dioxin-5-yl)amino)-7-((methyl-d3)amino)pyrazolo[1,5-a]pyrimidin-3-yl)-3-((1R,2S)-2-fluorocyclopropyl)urea]
< 1	CNc1cc(Nc2cccc3c2OCCO3)nc2c(NC(=O)N[C@@H]3C[C@@H]3C#N)cnn12 [Compound 45, 1-((1R,2S)-2-cyanocyclopropyl)-3-(5-((2,3-dihydrobenzo[b][1,4]dioxin-5-yl)amino)-7-(methylamino)pyrazolo[1,5-a]pyrimidin-3-yl)urea]
1 to 10	CNc1cc(Nc2cccc3c2OCCC3(F)F)nc2c(NC(=O)N[C@@H]3C[C@@H]3F)cnn12 [Compound 184, 1-(5-((4,4-difluorochroman-8-yl)amino)-7-(methylamino)pyrazolo[1,5-a]pyrimidin-3-yl)-3-((1R,2S)-2-fluorocyclopropyl)urea]
< 1	CNc1cc(Nc2cccc3c2OCCC3=O)nc2c(NC(=O)N[C@@H]3C[C@@H]3F)cnn12 [Compound 183, 1-((1R,2S)-2-fluorocyclopropyl)-3-(7-(methylamino)-5-((4-oxochroman-8-yl)amino)pyrazolo[1,5-a]pyrimidin-3-yl)urea]

The next lines start with the molecule.

SMILES	IC50 [µM]
CNc1cc(-c2cn(C(C)C)c3ncccc23)nc2c(NC(=O)NC3CC3O)cnn12 (centres unmarked) [Compound 58, 1-(2-hydroxycyclopropyl)-3-(5-(1-isopropyl-1H-pyrrolo[2,3-b]pyridin-3-yl)-7-(methylamino)pyrazolo[1,5-a]pyrimidin-3-yl)urea]	≥ 10
CNC(=O)Nc1cnn2c(NC)cc(Nc3ccccc3-c3ccccc3)nc12 [Compound 165, 1-(5-([1,1′-biphenyl]-2-ylamino)-7-(methylamino)pyrazolo[1,5-a]pyrimidin-3-yl)-3-methylurea]	≥ 10
CNc1cc(-c2cn(C(C)C)c3ncccc23)nc2c(NC(=O)N[C@H]3CC[C@H]3O)cnn12 [Compound 57, 1-((1S,2R)-2-hydroxycyclobutyl)-3-(5-(1-isopropyl-1H-pyrrolo[2,3-b]pyridin-3-yl)-7-(methylamino)pyrazolo[1,5-a]pyrimidin-3-yl)urea]	1 to 10
CNc1cc(Nc2cccc3c2OCCO3)nc2c(NC(=O)NCCOC)cnn12 [Compound 112, 1-(5-((2,3-dihydrobenzo[b][1,4]dioxin-5-yl)amino)-7-(methylamino)pyrazolo[1,5-a]pyrimidin-3-yl)-3-(2-methoxyethyl)urea]	< 1
CNC(=O)Nc1cnn2c(NC)cc(Nc3cncc4ccccc34)nc12 [Compound 91, 1-(5-(isoquinolin-4-ylamino)-7-(methylamino)pyrazolo[1,5-a]pyrimidin-3-yl)-3-methylurea]	1 to 10
CNC(=O)Nc1cnn2c(NC)cc(Nc3ccccc3OC(F)(F)F)nc12 [Compound 168, 1-methyl-3-(7-(methylamino)-5-((2-(trifluoromethoxy)phenyl)amino)pyrazolo[1,5-a]pyrimidin-3-yl)urea]	1 to 10
CNC(=O)Nc1cnn2c(NC)cc(-c3cn(C4COC4)c4ncccc34)nc12 [Compound 86, 1-methyl-3-(7-(methylamino)-5-(1-(oxetan-3-yl)-1H-pyrrolo[2,3-b]pyridin-3-yl)pyrazolo[1,5-a]pyrimidin-3-yl)urea]	1 to 10
CNc1cc(Nc2cc(F)cc3c2OCCO3)nc2c(NC(=O)NC3CS(=O)(=O)C3)cnn12 [Compound 126, 1-(1,1-dioxidothietan-3-yl)-3-(5-((7-fluoro-2,3-dihydrobenzo[b][1,4]dioxin-5-yl)amino)-7-(methylamino)pyrazolo[1,5-a]pyrimidin-3-yl)urea]	1 to 10
CNc1cc(Nc2cccc3c2OCCO3)nc2c(NC(=O)NCC(F)(F)F)cnn12 [Compound 99, 1-(5-((2,3-dihydrobenzo[b][1,4]dioxin-5-yl)amino)-7-(methylamino)pyrazolo[1,5-a]pyrimidin-3-yl)-3-(2,2,2-trifluoroethyl)urea]	< 1
CNC(=O)Nc1cnn2c(NC)cc(Nc3cc(F)cc(F)c3OC)nc12 [Compound 143, 1-(5-((3,5-difluoro-2-methoxyphenyl)amino)-7-(methylamino)pyrazolo[1,5-a]pyrimidin-3-yl)-3-methylurea]	< 1
CNc1cc(Nc2cccc3c2OCCO3)nc2c(NC(=O)NCC(C)(C)CO)cnn12 [Compound 141, 1-(5-((2,3-dihydrobenzo[b][1,4]dioxin-5-yl)amino)-7-(methylamino)pyrazolo[1,5-a]pyrimidin-3-yl)-3-(3-hydroxy-2,2-dimethylpropyl)urea]	1 to 10
CNc1cc(Nc2cc(F)cc3c2OCCO3)nc2c(NC(=O)NC3CCC3C#N)cnn12 (centres unmarked) [Compound 46, 1-(2-cyanocyclobutyl)-3-(5-((7-fluoro-2,3-dihydrobenzo[b][1,4]dioxin-5-yl)amino)-7-(methylamino)pyrazolo[1,5-a]pyrimidin-3-yl)urea]	1 to 10
CNC(=O)Nc1cnn2c(NC)cc(Nc3cc(C)cc4c3OCCO4)nc12 [Compound 78, 1-methyl-3-(5-((7-methyl-2,3-dihydrobenzo[b][1,4]dioxin-5-yl)amino)-7-(methylamino)pyrazolo[1,5-a]pyrimidin-3-yl)urea]	< 1
CNc1cc(Nc2cccc3c2OCCO3)nc2c(NC(=O)NCCC(F)F)cnn12 [Compound 179, 1-(3,3-difluoropropyl)-3-(5-((2,3-dihydrobenzo[b][1,4]dioxin-5-yl)amino)-7-(methylamino)pyrazolo[1,5-a]pyrimidin-3-yl)urea]	< 1
CNc1cc(Nc2cccc3nccnc23)nc2c(NC(=O)NC3CC3O)cnn12 (centres unmarked) [Compound 30, 1-(2-hydroxycyclopropyl)-3-(7-(methylamino)-5-(quinoxalin-5-ylamino)pyrazolo[1,5-a]pyrimidin-3-yl)urea]	≥ 10
CNC(=O)Nc1cnn2c(NC)cc(Nc3cccnc3OC3CCOCC3)nc12 [Compound 94, 1-methyl-3-(7-(methylamino)-5-((2-((tetrahydro-2H-pyran-4-yl)oxy)pyridin-3-yl)amino)pyrazolo[1,5-a]pyrimidin-3-yl)urea]	1 to 10
CNc1cc(-c2cn(C(C)C)c3ncccc23)nc2c(NC(=O)NCC#N)cnn12 [Compound 130, 1-(cyanomethyl)-3-(5-(1-isopropyl-1H-pyrrolo[2,3-b]pyridin-3-yl)-7-(methylamino)pyrazolo[1,5-a]pyrimidin-3-yl)urea]	< 1
CNC(=O)Nc1cnn2c(NC)cc(Nc3ccccc3)nc12 [Compound 146, 1-methyl-3-(7-(methylamino)-5-(phenylamino)pyrazolo[1,5-a]pyrimidin-3-yl)urea]	1 to 10
CNc1cc(Nc2cc(F)cc3c2OCCO3)nc2c(NC(=O)NC3CCC3)cnn12 [Compound 105, 1-cyclobutyl-3-(5-((7-fluoro-2,3-dihydrobenzo[b][1,4]dioxin-5-yl)amino)-7-(methylamino)pyrazolo[1,5-a]pyrimidin-3-yl)urea]	< 1
CNc1cc(Nc2cc(F)cc3c2OCCO3)nc2c(NC(=O)NCC3(C#N)CC3)cnn12 [Compound 180, 1-((1-cyanocyclopropyl)methyl)-3-(5-((7-fluoro-2,3-dihydrobenzo[b][1,4]dioxin-5-yl)amino)-7-(methylamino)pyrazolo[1,5-a]pyrimidin-3-yl)urea]	≥ 10
